Experimental data taken from PubChem BioAssay AID248 (DTP/NCI, 2004).
“And” between values parts separate entries of the source, which are not always exact repeats. Equal values may be shown once. Inconclusive results and toxic doses are left out. Rule as the data show it: active = T/C of 150% or more; inactive = T/C below 125%.

Tested on: L1210 leukemia ip in BDF1 mice, survival T/C
Assay: NCI In Vivo Anticancer Drug Screen. Data for tumor model L1210 Leukemia (intraperitoneal) in B6D2F1 (BDF1) mice
Settings: endpoint: mean survival time, higher = longer survival
Outline: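 Each compound was tested against a transplantable tumor grown in mice. The endpoint was survival, with treated animals benchmarked against vehicle controls as a simple ratio.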

[1] = dose: 100.0 mg/kg/injection, schedule: Q01DX001 (ip), vehicle: saline
[2] = dose: 200.0 mg/kg/injection, schedule: Q01DX001 (ip), vehicle: saline
[3] = dose: 400.0 mg/kg/injection, schedule: Q01DX001 (ip), vehicle: saline
[4] = dose: 100.0 mg/kg/injection, schedule: Q01DX001 (ip), vehicle: carboxymethylcellulose (CMC)
[5] = dose: 200.0 mg/kg/injection, schedule: Q01DX001 (ip), vehicle: carboxymethylcellulose (CMC)
[6] = dose: 400.0 mg/kg/injection, schedule: Q01DX001 (ip), vehicle: carboxymethylcellulose (CMC)
[7] = dose: 100.0 mg/kg/injection, schedule: Q04DX002 (ip), vehicle: saline
[8] = dose: 100.0 mg/kg/injection, schedule: Q01DX009 (ip), vehicle: Klucel (hydroxypropylcellulose) (HPC)

Measured: T/C

Cc1nc2[nH]c(=O)[nH]c(=O)c2[nH]1
inactive: dose: 100.0 mg/kg/injection, schedule: Q04DX003 (ip), vehicle: saline with Tween-80 91 % of control | dose: 200.0 mg/kg/injection, schedule: Q04DX003 (ip), vehicle: saline with Tween-80 101 % of control | dose: 400.0 mg/kg/injection, schedule: Q04DX003 (ip), vehicle: saline with Tween-80 90 % of control

CCN(CC)c1ccccc1S(=O)(=O)O
inactive: [1] 104 % of control | [2] 95 % of control | [3] 98 % of control

CCn1c2ccccc2c2cc3ccnc(C)c3cc21
inactive: dose: 100.0 mg/kg/injection, schedule: Q04DX002 (ip), vehicle: Klucel (hydroxypropylcellulose) (HPC) 97 % of control | dose: 200.0 mg/kg/injection, schedule: Q04DX002 (ip), vehicle: Klucel (hydroxypropylcellulose) (HPC) 101 % of control | dose: 400.0 mg/kg/injection, schedule: Q04DX002 (ip), vehicle: Klucel (hydroxypropylcellulose) (HPC) 111 % of control

CCOP(=O)(Nc1ccc2c(c1)C(O)c1ccccc1-2)OCC (configuration not stated)
inactive: dose: 50.0 mg/kg/injection, schedule: Q01DX001 (ip), vehicle: carboxymethylcellulose (CMC) 100 % of control | [4] 94 % of control | [5] 103 % of control | [6] 103 % of control

CN(C)c1ccc2c(c1)/C(=N/O)c1ccccc1-2
inactive: [4] 103 % of control | [5] 105 % of control | [6] 100 % of control

O=C(NC1CCC12CC2)c1ccc2ccccc2c1 (configuration not stated)
inactive: dose: 37.5 mg/kg/injection, schedule: Q04DX002 (ip), vehicle: saline with Tween-80 97 % of control | dose: 75.0 mg/kg/injection, schedule: Q04DX002 (ip), vehicle: saline with Tween-80 93 % of control | dose: 150.0 mg/kg/injection, schedule: Q04DX002 (ip), vehicle: saline with Tween-80 93 % of control | dose: 300.0 mg/kg/injection, schedule: Q04DX002 (ip), vehicle: saline with Tween-80 93 % of control

CN(C)c1ccc(/C=N\NC(=O)CCCC(=O)N/N=C/c2ccc(N(C)C)cc2Cl)c(Cl)c1
inactive: dose: 50.0 mg/kg/injection, schedule: Q01DX001 (ip), vehicle: saline 98 % of control | [1] 98 % of control | [2] 102 % of control | [3] 102 % of control

c1ccc(-c2csc(-c3nc(-c4ccccc4)cs3)n2)cc1
inactive: dose: 100.0 mg/kg/injection, schedule: Q04DX003 (ip), vehicle: Klucel (hydroxypropylcellulose) (HPC) 90 % of control | dose: 200.0 mg/kg/injection, schedule: Q04DX003 (ip), vehicle: Klucel (hydroxypropylcellulose) (HPC) 95 % of control | dose: 400.0 mg/kg/injection, schedule: Q04DX003 (ip), vehicle: Klucel (hydroxypropylcellulose) (HPC) 102 % of control

CCC(=O)OC1(c2ccccc2)CCN(CCNc2ccccc2)CC1
inactive: dose: 20.0 mg/kg/injection, schedule: Q04DX003 (ip), vehicle: Klucel (hydroxypropylcellulose) (HPC) 100 % of control | dose: 40.0 mg/kg/injection, schedule: Q04DX003 (ip), vehicle: Klucel (hydroxypropylcellulose) (HPC) 103 % of control | dose: 80.0 mg/kg/injection, schedule: Q04DX003 (ip), vehicle: Klucel (hydroxypropylcellulose) (HPC) 105 % of control

CCN(CC)CCNCCO
inactive: dose: 100.0 mg/kg/injection, schedule: Q01DX009 (ip), vehicle: saline 89 % of control | dose: 100.0 mg/kg/injection, schedule: Q04DX003 (ip), vehicle: saline 95 % of control | dose: 200.0 mg/kg/injection, schedule: Q01DX009 (ip), vehicle: saline 94 % of control | dose: 200.0 mg/kg/injection, schedule: Q04DX003 (ip), vehicle: saline 92 % of control | dose: 400.0 mg/kg/injection, schedule: Q01DX009 (ip), vehicle: saline 89 % of control | dose: 400.0 mg/kg/injection, schedule: Q04DX003 (ip), vehicle: saline 92 % of control

Cc1cccc(SC(=O)SC(C)CN)c1 (configuration not stated)
inactive: dose: 25.0 mg/kg/injection, schedule: Q04DX002 (ip), vehicle: saline 99 % of control | dose: 50.0 mg/kg/injection, schedule: Q04DX002 (ip), vehicle: saline 105 % of control | [7] 94 % of control and 99 % of control

Cc1ccc([N+](=O)[O-])cc1NC(=O)Nc1cccc2ccc(O)cc12
inactive: [8] 95 % of control | dose: 200.0 mg/kg/injection, schedule: Q01DX009 (ip), vehicle: Klucel (hydroxypropylcellulose) (HPC) 93 % of control | dose: 400.0 mg/kg/injection, schedule: Q01DX009 (ip), vehicle: Klucel (hydroxypropylcellulose) (HPC) 104 % of control

O=C(O)C[S+]1CCSCC1
inactive: [7] 105 % of control | dose: 200.0 mg/kg/injection, schedule: Q04DX002 (ip), vehicle: saline 105 % of control | dose: 400.0 mg/kg/injection, schedule: Q04DX002 (ip), vehicle: saline 105 % of control

CCCCCCCCCCCCCCCCS(=O)CCCCCCCCCCCCCCCC
inactive: dose: 50.0 mg/kg/injection, schedule: Q01DX009 (ip), vehicle: Klucel (hydroxypropylcellulose) (HPC) 88 % of control | [8] 92 % of control
